Consider 5 compounds from EP4725957A1, “GROUP OF CYCLIC ALKALINE LIPOPEPTIDE COMPOUNDS, AND PREPARATION METHOD THEREFOR AND USE THEREOF” (Institute of Medicinal Biotechnology, Chinese Academy of …, priority 2023, dated 2024).

In brackets after ≈: the same amount, converted by molar mass. Read-outs that look alike come from different tables or passages of the source. Bridge positions count the residues as written; N and C are the ends. Square brackets hold non-standard residues; d marks the D form. Peptide text beside a SMILES is read from it. * marks the point of attachment. Dab(CH2SO3H) = N[C@@H](CCNCS(=O)(=O)O)C(=O)O; Heptanoyl(6-Me) = CC(C)CCCCC(=O)*; Sulfomethyl = O=S(=O)(O)C*; X1 = CC[C@H](C)CCCCC(=O)*; dDap = NC[C@@H](N)C(=O)O; Dab = NCC[C@H](N)C(=O)O; Dap = NC[C@H](N)C(=O)O Bounds are passed on as bounds.

Data set [1] relates to Escherichia coli ATCC BAA-2523. Type of data set: cell-based. Put shortly:
(§1)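 Minimal inhibitory concentrations are measured following CLSI microdilution guidance in MH broth. Test concentrations run from 64 down to 0.03 mg/L in doubling steps, with a final bacterial load of (2-4) × 10^5 CFU/mL and 16-20 h incubation at 35-37°C.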

Data set [2] concerns Klebsiella pneumoniae ATCC BAA-1705 (KPC). In kind it is cell-based. The method, boiled down: as §1
For data set [3], the system named is Escherichia coli ATCC BAA-2340 (KPC). In kind it is cell-based. Put shortly:
as §1

The subject of data set [4] is Acinetobacter baumannii NCTC 13304 (OXA-27). In kind it is cell-based. Put shortly:
as §1

The subject of data set [5] is Acinetobacter baumannii ABA19-1. In kind it is cell-based. Put shortly: as §1
The subject of data set [6] is Klebsiella pneumoniae KPN+19-15. In kind it is cell-based. The method, boiled down: as §1
In data set [7] the test system is Pseudomonas aeruginosa ATCC 27853. In kind it is cell-based. Put shortly:
as §1

The test system of data set [8] is Pseudomonas aeruginosa PAE19-3. In kind it is cell-based. The method, boiled down: as §1
Data set [9] relates to Pseudomonas aeruginosa ATCC27853. Briefly: In vivo antibacterial (protection) test in infected mice. The conditions noted are these: infected ICR mice, 7 days observation. The source says: Pseudomonas aeruginosa ATCC27853 was selected for the determination of in vivo antibacterial activity.
One day before infection, the test bacteria were inoculated onto the corresponding nutrient agar plates and cultured overnight. On the day of infection, single colonies grown on the plates were picked and suspended in sterile normal saline, and the suspension was mixed thoroughly to obtain the original bacterial solution. The bacterial solution was then adjusted to the required concentration with 5% dried yeast powder and prepared freshly prior to use.
Healthy ICR mice were randomly divided into groups, with 5 mice per group, half male and half female. Bacterial solutions of different dilutions were aspirated and injected intraperitoneally into mice at a volume of 0.5 mL per 20 g of body weight. The mortality of mice was recorded within 7 days after infection. The minimum bacterial dose causing 100% mortality in mice was defined as the minimum lethal dose (MLD), which was used as the infection dose for the in vivo protection test.
Drug administration was performed via tail vein injection at 2 h, 8 h, 24 h, and 30 h after infection, with a total of 4 administrations, and the administration volume was 20 mL/kg. For the preparation of drug solutions, Compound 7, together with the control drugs polymyxin B and meropenem, were dissolved in normal saline to the required concentrations for tail vein injection, and all solutions were prepared freshly prior to use.
In the preliminary test, the drug dose concentrations that caused 100% mortality and no mortality in mice after infection with the tested bacteria were determined. Based on this dose range, 4-5 dose groups were established, with a dose ratio of 1:0.5 to 1:0.8 between adjacent groups.
Mice were randomly grouped according to body weight, with 8 mice per group (half male and half female). Each mouse was intraperitoneally infected with the test bacterial solution at a volume of 0.5 mL per 20 g of body weight, followed by tail vein injection at 2 h, 8 h, 24 h, and 30 h after infection. Mice in the blank control group were not infected with bacterial solution but were only given an equal volume of vehicle at an administration volume of 20 mL/kg. The mortality of mice was observed and recorded for 7 consecutive days.
The minimum lethal bacterial concentration of Pseudomonas aeruginosa ATCC27853 for intraperitoneal infection in mice was 4.2 × 10^2 CFU/mL, which was used as the infection dose in the formal test.
Mice in the infection control group were intraperitoneally inoculated with Pseudomonas aeruginosa ATCC27853 bacterial solution at the MLD concentration ([…]). Infection symptoms began to appear 3-4 hours after inoculation, and all 8 animals died within 48 hours (8/8), with a mortality rate of 100%.

Data set [10] can be described thus: Nephrotoxicity assay: in vitro cytotoxicity of HK-2 cells by CCK-8 assay. Type of data set: cell-based. The conditions noted are these: human, HK-2 cells (human renal), 72 h incubation with drug-containing medium. The method, boiled down:
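HK-2 human renal cells in RPMI-1640 with 10% FBS were exposed to compounds at final 12.5–500 µg/mL for 72 h, then CCK-8 for 3 h and OD450 read. Viability was normalised to drug-free wells; IC50 came from logarithmic regression over three repeats, with polymyxin B as positive drug.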
A general note: Tetrazolium dyes change colour on reduction, which living cells bring about.

The next data set concerns Healthy ICR mice. The experiment in a line: Acute toxicity test in healthy mice, single tail vein injection. The conditions noted are these: within 7 days. In kind it is in vivo. As to the method: (§2) Healthy ICR mice aged 5-6 weeks were selected, with 5-10 mice in each group, and administered via a single tail vein injection at an administration volume of 20 mL/kg. In the preliminary test, the drug dose concentrations that caused 100% mortality and no mortality in mice after a single intravenous injection were determined. Based on this dose range, 4-5 dose groups were set up, with a dose ratio of 1:0.5 to 1:0.8 between adjacent groups. The mortality of animals within 7 days after administration was recorded. According to the mortality rate of experimental animals in each group, the median lethal dose (LD50) of the test samples, i.e., the dose causing 50% mortality of the tested animals, was calculated by the Bliss method.

Experiment in data set [11]: as above
Type of data set: in vivo. The conditions noted are these: mouse, in vivo, iv; ICR mice, single tail vein injection, Bliss method. As to the method:
as §2

Setting [12] is: Klebsiella pneumoniae ATCC BAA-1705 (KPC).
The mark [13] stands for this setting: Escherichia coli ATCC BAA-2340 (KPC).
Where [14] appears, read: Acinetobacter baumannii NCTC 13304 (OXA-27).
Setting [15] is: Acinetobacter baumannii ABA19-1.
The mark [16] stands for this setting: Klebsiella pneumoniae KPN 19-15.
[17] abbreviates: Pseudomonas aeruginosa ATCC27853.

With Polymyxin B [reference compound], the MIC – broadly, the lowest concentration found to suppress growth – in data set [1] (Escherichia coli ATCC BAA-2523) was found to be 0.03 µg/mL; in [2] (setting [12]), 0.125 µg/mL; in data set [3] (setting [13]), 0.03 µg/mL; in data set [4] (setting [14]), 0.06 µg/mL; in data set [5] (setting [15]), 0.25 µg/mL; in data set [6] (setting [16]), 0.125 µg/mL. Further, the MIC in data set [7] (setting [17]) and in [8] (Pseudomonas aeruginosa PAE19-3) was 0.25 µg/mL throughout. The mortality rate is reported as 100% in data set [9] (0.7 mg/kg tail vein twice daily for 2 days), 100% in data set [9] (1.0 mg/kg tail vein twice daily for 2 days), 87.5% in data set [9] (1.4 mg/kg tail vein twice daily for 2 days) and 62.5% in [9] (2 mg/kg tail vein twice daily for 2 days).

For the compound `CC(C)CCCCC(=O)N[C@@H](CCN)C(=O)N[C@H](C(=O)N[C@H](CN)C(=O)N[C@H]1CCNC(=O)[C@H]([C@@H](C)O)NC(=O)[C@H](CCN)NC(=O)[C@H](CCN)NC(=O)[C@H]([C@@H](C)O)NC(=O)[C@@H](Cc2ccccc2)NC(=O)[C@H](CCN)NC1=O)[C@@H](C)O` [Compound 2, 6-methylheptanoyl-Dab-Thr-D-Dap-ring(4-10)[Dab-Dab-D-Phe-Thr-Dab-Dab-Thr]] ({Heptanoyl(6-Me)}-[Dab]T[dDap][Dab][Dab][dF]T[Dab][Dab]T; lactam 4-C), the IC50 (in general, the concentration that gives 50% inhibition) at 72 h in [10] is greater than 500 µg/mL. Besides, the MIC in data set [1] (Escherichia coli ATCC BAA-2523), in data set [2] (setting [12]), in [3] (setting [13]), in [4] (setting [14]), in [5] (setting [15]) and in [6] (setting [16]) was no more than 0.03 µg/mL in each case. In addition, the MIC was no more than 0.03 µg/mL in data set [7] (setting [17]) and 0.125 µg/mL (≈ 0.107 µM) in [8] (Pseudomonas aeruginosa PAE19-3). For the same compound, the mortality rate is 0% in the data set on Healthy ICR mice (single tail vein injection 15.36 mg/kg), 25% with Healthy ICR mice (single tail vein injection 19.2 mg/kg), 62.5% in the data set on Healthy ICR mice (single tail vein injection 24 mg/kg) and 100% with Healthy ICR mice (single tail vein injection 30 mg/kg). Besides, the LD50 (as a rule, the dose expected to kill half of the subjects tested) at 168 h in [11] was found to be 22 mg/kg.

In [10], `CC[C@H](C)CCCCC(=O)N[C@@H](CCN)C(=O)N[C@H](C(=O)N[C@@H](CN)C(=O)N[C@H]1CCNC(=O)[C@H]([C@@H](C)O)NC(=O)[C@H](CCN)NC(=O)[C@H](CCN)NC(=O)[C@H]([C@@H](C)O)NC(=O)[C@@H](Cc2ccccc2)NC(=O)[C@H](CCN)NC1=O)[C@@H](C)O` [Compound 6, (S)-6-methyloctanoyl-Dab-Thr-Dap-ring(4-10)[Dab-Dab-D-Phe-Thr-Dab-Dab-Thr]] (X1-[Dab]T[Dap][Dab][Dab][dF]T[Dab][Dab]T; lactam 4-C) came in with an IC50 at 72 h greater than 500 µg/mL. Besides, the MIC in data set [1] (ATCC BAA-2523), in data set [2] (ATCC BAA-1705), in data set [3] (ATCC BAA-2340), in data set [4] (NCTC 13304), in data set [5] (ABA19-1) and in data set [6] (KPN+19-15) was no more than 0.03 µg/mL in each case. Besides, the MIC amounted to 0.03 µg/mL (≈ 0.0255 µM) in [7] (ATCC 27853) and 0.125 µg/mL (≈ 0.106 µM) in [8] (PAE19-3).

Regarding `CC(C)CCCCC(=O)N[C@@H](CCN)C(=O)N[C@H](C(=O)N[C@H](CO)C(=O)N[C@H]1CCNC(=O)[C@H]([C@@H](C)O)NC(=O)[C@H](CCN)NC(=O)[C@H](CCNCS(=O)(=O)O)NC(=O)[C@H]([C@@H](C)O)NC(=O)[C@@H](Cc2ccccc2)NC(=O)[C@H](CCN)NC1=O)[C@@H](C)O` [Compound 110, 6-methylheptanoyl-Dab-Thr-D-Ser-ring(4-10)[Dab-Dab-D-Phe-Thr-Dab(CH2SO3H)-Dab-Thr]] ({Heptanoyl(6-Me)}-[Dab]T[dS][Dab][Dab][dF]T[Dab(CH2SO3H)][Dab]T; lactam 4-C), in data set [10], the IC50 at 72 h was greater than 500 µg/mL. In addition, the MIC in data set [1] (ATCC BAA-2523) was found to be 0.06 µg/mL (≈ 0.0477 µM); in data set [2] (ATCC BAA-1705), 0.125 µg/mL (≈ 0.0993 µM); in data set [3] (ATCC BAA-2340), 0.06 µg/mL (≈ 0.0477 µM); in [4] (NCTC 13304), 0.06 µg/mL (≈ 0.0477 µM); in data set [5] (ABA19-1) it was 0.25 µg/mL (≈ 0.199 µM); in data set [6] (KPN+19-15) it was 0.125 µg/mL (≈ 0.0993 µM). Further, the MIC in [7] (ATCC 27853) was 0.25 µg/mL (≈ 0.199 µM); in data set [8] (PAE19-3) it was 0.5 µg/mL (≈ 0.397 µM).

In data set [10], `CC(C)CCCCC(=O)N[C@@H](CCN)C(=O)N[C@H](C(=O)N[C@@H](CN)C(=O)N[C@H]1CCNC(=O)[C@H]([C@@H](C)O)NC(=O)[C@H](CCN)NC(=O)[C@H](CCN)NC(=O)[C@H]([C@@H](C)O)NC(=O)[C@@H](Cc2ccccc2)NC(=O)[C@H](CCN)NC1=O)[C@@H](C)OCS(=O)(=O)O` [Compound 113, 6-methylheptanoyl-Dab-Thr(CH2SO3H)-Dap-ring(4-10)[Dab-Dab-D-Phe-Thr-Dab-Dab-Thr]] ({Heptanoyl(6-Me)}-[Dab]T(Sulfomethyl)[Dap][Dab][Dab][dF]T[Dab][Dab]T; lactam 4-C) yielded an IC50 at 72 h greater than 500 µg/mL. The MIC in [1] (ATCC BAA-2523) came out at 0.03 µg/mL (≈ 0.0239 µM); in data set [2] (ATCC BAA-1705) it was 0.125 µg/mL (≈ 0.0994 µM); in data set [3] (ATCC BAA-2340), 0.03 µg/mL (≈ 0.0239 µM); in data set [4] (NCTC 13304), 0.06 µg/mL (≈ 0.0477 µM); in data set [5] (ABA19-1), 0.06 µg/mL (≈ 0.0477 µM); in data set [6] (KPN+19-15) it was 0.125 µg/mL (≈ 0.0994 µM). Besides, the MIC in data set [7] (ATCC 27853) and in data set [8] (PAE19-3) was 0.25 µg/mL (≈ 0.199 µM) throughout.
